# Reference: ChEMBL document CHEMBL1142798, “Lipophilic versus hydrogen-bonding effect in P3 on potency and selectivity of valine aspartyl ketones as caspase 3 inhibitors” (Bioorg Med Chem Lett, 2005)
# Biological target: T1, Caspase-3 (Homo sapiens, UniProt P42574)
# T1 sequence (P42574 whole entry): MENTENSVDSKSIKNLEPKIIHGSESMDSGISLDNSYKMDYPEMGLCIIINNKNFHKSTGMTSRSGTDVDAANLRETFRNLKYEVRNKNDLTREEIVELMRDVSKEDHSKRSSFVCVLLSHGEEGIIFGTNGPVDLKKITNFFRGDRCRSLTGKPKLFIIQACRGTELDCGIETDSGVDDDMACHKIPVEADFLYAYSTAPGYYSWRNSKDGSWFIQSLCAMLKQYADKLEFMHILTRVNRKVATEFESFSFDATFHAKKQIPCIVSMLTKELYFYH
# Assay: Inhibitory activity against recombinant human Caspase-3
row,IC50 [µM],Compound
1,0.146,CC(C)[C@H](NC(=O)C(O)(C(F)(F)F)C(F)(F)F)C(=O)N[C@@H](CC(=O)O)C(=O)CSCc1ccccc1
2,1.29,CC(C)[C@H](NC(=O)C(O)(c1ccccc1)c1ccccc1)C(=O)N[C@@H](CC(=O)O)C(=O)CSCc1ccccc1
3,0.118,CC(C)[C@H](O)C(=O)N[C@H](C(=O)N[C@@H](CC(=O)O)C(=O)CSCc1ccccc1)C(C)C
4,2.02,CCC(O)(CC)C(=O)N[C@H](C(=O)N[C@@H](CC(=O)O)C(=O)CSCc1ccccc1)C(C)C
5,0.16,CC(C)[C@H](NC(=O)C1(O)CC1)C(=O)N[C@@H](CC(=O)O)C(=O)CSCc1ccccc1
6,0.323,COc1ccc(Br)cc1[C@H](C(=O)N[C@H](C(=O)N[C@@H](CC(=O)O)C(=O)CSCc1ccccc1)C(C)C)C1CC1
7,0.009,COc1ccc(-c2nc(C)no2)cc1CC(=O)N[C@H](C(=O)N[C@@H](CC(=O)O)C(=O)CSCc1ccccc1)C(C)C
8,0.013,COc1ccc(C(C)=O)cc1CC(=O)N[C@H](C(=O)N[C@@H](CC(=O)O)C(=O)CSCc1ccccc1)C(C)C
9,0.1,"CC(C)[C@H](NC(=O)C(O)c1ccccc1)C(=O)N[C@@H](CC(=O)O)C(=O)CSCc1ccccc1 (single isomer, unassigned)"
10,0.053,COc1ccc(OC)c(CC(=O)N[C@H](C(=O)N[C@@H](CC(=O)O)C(=O)CSCc2ccccc2)C(C)C)c1
11,0.041,CC(C)[C@H](NC(=O)[C@H](O)c1ccccc1)C(=O)N[C@@H](CC(=O)O)C(=O)CSCc1ccccc1

# Biological target: Caspase-8 (Homo sapiens, UniProt Q14790)
# Sequence (Q14790 217-374 limits assumed): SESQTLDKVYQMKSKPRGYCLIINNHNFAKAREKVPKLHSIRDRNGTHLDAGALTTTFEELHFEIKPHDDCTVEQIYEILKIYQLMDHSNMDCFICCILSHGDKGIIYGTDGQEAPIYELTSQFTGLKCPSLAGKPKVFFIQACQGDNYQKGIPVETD
# Sequence (Q14790 385-479 limits assumed): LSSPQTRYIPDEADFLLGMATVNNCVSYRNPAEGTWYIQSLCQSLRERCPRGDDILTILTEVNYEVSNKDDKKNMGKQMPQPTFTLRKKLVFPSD
# Assay: Inhibitory activity against recombinant human Caspase-8
row,IC50 [µM],Compound
1,> 10,CC(C)[C@H](NC(=O)C(O)(C(F)(F)F)C(F)(F)F)C(=O)N[C@@H](CC(=O)O)C(=O)CSCc1ccccc1
2,> 10,CC(C)[C@H](NC(=O)C(O)(c1ccccc1)c1ccccc1)C(=O)N[C@@H](CC(=O)O)C(=O)CSCc1ccccc1
3,7.34,CC(C)[C@H](O)C(=O)N[C@H](C(=O)N[C@@H](CC(=O)O)C(=O)CSCc1ccccc1)C(C)C
4,9.58,CCC(O)(CC)C(=O)N[C@H](C(=O)N[C@@H](CC(=O)O)C(=O)CSCc1ccccc1)C(C)C
5,12.3,CC(C)[C@H](NC(=O)C1(O)CC1)C(=O)N[C@@H](CC(=O)O)C(=O)CSCc1ccccc1
6,> 10,COc1ccc(Br)cc1[C@H](C(=O)N[C@H](C(=O)N[C@@H](CC(=O)O)C(=O)CSCc1ccccc1)C(C)C)C1CC1
7,3.29,COc1ccc(-c2nc(C)no2)cc1CC(=O)N[C@H](C(=O)N[C@@H](CC(=O)O)C(=O)CSCc1ccccc1)C(C)C
8,3.88,COc1ccc(C(C)=O)cc1CC(=O)N[C@H](C(=O)N[C@@H](CC(=O)O)C(=O)CSCc1ccccc1)C(C)C
9,3.65,"CC(C)[C@H](NC(=O)C(O)c1ccccc1)C(=O)N[C@@H](CC(=O)O)C(=O)CSCc1ccccc1 (single isomer, unassigned)"
10,7.91,COc1ccc(OC)c(CC(=O)N[C@H](C(=O)N[C@@H](CC(=O)O)C(=O)CSCc2ccccc2)C(C)C)c1
11,1.15,CC(C)[C@H](NC(=O)[C@H](O)c1ccccc1)C(=O)N[C@@H](CC(=O)O)C(=O)CSCc1ccccc1

# Biological target: T2, Caspase-7 (Homo sapiens, UniProt P55210)
# T2 sequence (P55210 whole entry): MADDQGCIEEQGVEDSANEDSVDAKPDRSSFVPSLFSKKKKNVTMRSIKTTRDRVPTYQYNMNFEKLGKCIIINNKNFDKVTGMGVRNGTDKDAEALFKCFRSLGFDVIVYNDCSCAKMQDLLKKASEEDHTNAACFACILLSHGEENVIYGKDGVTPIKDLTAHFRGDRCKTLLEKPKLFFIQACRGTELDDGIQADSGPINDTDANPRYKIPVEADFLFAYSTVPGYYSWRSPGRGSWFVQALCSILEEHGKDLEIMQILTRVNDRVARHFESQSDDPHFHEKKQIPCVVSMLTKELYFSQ
# Assay: Inhibitory activity against recombinant human Caspase-7
row,IC50 [µM],Compound
1,> 10,CC(C)[C@H](NC(=O)C(O)(C(F)(F)F)C(F)(F)F)C(=O)N[C@@H](CC(=O)O)C(=O)CSCc1ccccc1
2,> 10,CC(C)[C@H](NC(=O)C(O)(c1ccccc1)c1ccccc1)C(=O)N[C@@H](CC(=O)O)C(=O)CSCc1ccccc1
3,3.4,CC(C)[C@H](O)C(=O)N[C@H](C(=O)N[C@@H](CC(=O)O)C(=O)CSCc1ccccc1)C(C)C
4,> 10,CCC(O)(CC)C(=O)N[C@H](C(=O)N[C@@H](CC(=O)O)C(=O)CSCc1ccccc1)C(C)C
5,5.09,CC(C)[C@H](NC(=O)C1(O)CC1)C(=O)N[C@@H](CC(=O)O)C(=O)CSCc1ccccc1
6,> 10,COc1ccc(Br)cc1[C@H](C(=O)N[C@H](C(=O)N[C@@H](CC(=O)O)C(=O)CSCc1ccccc1)C(C)C)C1CC1
7,0.097,COc1ccc(-c2nc(C)no2)cc1CC(=O)N[C@H](C(=O)N[C@@H](CC(=O)O)C(=O)CSCc1ccccc1)C(C)C
8,0.555,COc1ccc(C(C)=O)cc1CC(=O)N[C@H](C(=O)N[C@@H](CC(=O)O)C(=O)CSCc1ccccc1)C(C)C
9,10.9,"CC(C)[C@H](NC(=O)C(O)c1ccccc1)C(=O)N[C@@H](CC(=O)O)C(=O)CSCc1ccccc1 (single isomer, unassigned)"
10,1.05,CC(C)[C@H](NC(=O)[C@H](O)c1ccccc1)C(=O)N[C@@H](CC(=O)O)C(=O)CSCc1ccccc1

# Biological target: T3, Caspase-1 (Homo sapiens, UniProt P29466)
# T3 sequence (P29466 whole entry): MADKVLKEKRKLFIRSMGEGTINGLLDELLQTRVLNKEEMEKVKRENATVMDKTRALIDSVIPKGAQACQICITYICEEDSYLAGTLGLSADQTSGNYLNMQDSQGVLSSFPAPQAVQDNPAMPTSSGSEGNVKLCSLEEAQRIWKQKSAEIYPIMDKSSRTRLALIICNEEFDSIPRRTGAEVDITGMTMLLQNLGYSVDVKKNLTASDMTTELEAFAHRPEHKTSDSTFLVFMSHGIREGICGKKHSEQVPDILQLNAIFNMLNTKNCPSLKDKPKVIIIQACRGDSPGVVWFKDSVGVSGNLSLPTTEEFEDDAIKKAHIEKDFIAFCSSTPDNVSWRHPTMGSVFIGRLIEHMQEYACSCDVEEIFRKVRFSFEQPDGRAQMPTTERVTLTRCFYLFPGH
# Assay: Inhibitory activity against recombinant human Caspase-1
row,IC50 [µM],Compound
1,> 10,CC(C)[C@H](NC(=O)C(O)(C(F)(F)F)C(F)(F)F)C(=O)N[C@@H](CC(=O)O)C(=O)CSCc1ccccc1
2,> 10,CC(C)[C@H](NC(=O)C(O)(c1ccccc1)c1ccccc1)C(=O)N[C@@H](CC(=O)O)C(=O)CSCc1ccccc1
3,3.01,CC(C)[C@H](O)C(=O)N[C@H](C(=O)N[C@@H](CC(=O)O)C(=O)CSCc1ccccc1)C(C)C
4,> 10,CCC(O)(CC)C(=O)N[C@H](C(=O)N[C@@H](CC(=O)O)C(=O)CSCc1ccccc1)C(C)C
5,9.59,CC(C)[C@H](NC(=O)C1(O)CC1)C(=O)N[C@@H](CC(=O)O)C(=O)CSCc1ccccc1
6,> 10,COc1ccc(Br)cc1[C@H](C(=O)N[C@H](C(=O)N[C@@H](CC(=O)O)C(=O)CSCc1ccccc1)C(C)C)C1CC1
7,5.45,COc1ccc(-c2nc(C)no2)cc1CC(=O)N[C@H](C(=O)N[C@@H](CC(=O)O)C(=O)CSCc1ccccc1)C(C)C
8,6.19,COc1ccc(C(C)=O)cc1CC(=O)N[C@H](C(=O)N[C@@H](CC(=O)O)C(=O)CSCc1ccccc1)C(C)C
9,4.06,"CC(C)[C@H](NC(=O)C(O)c1ccccc1)C(=O)N[C@@H](CC(=O)O)C(=O)CSCc1ccccc1 (single isomer, unassigned)"
10,7.07,COc1ccc(OC)c(CC(=O)N[C@H](C(=O)N[C@@H](CC(=O)O)C(=O)CSCc2ccccc2)C(C)C)c1
11,4.16,CC(C)[C@H](NC(=O)[C@H](O)c1ccccc1)C(=O)N[C@@H](CC(=O)O)C(=O)CSCc1ccccc1
